Values of other authors as cited in patent EP4605403B1, “METHOD AND COMPOSITION FOR OLIGONUCLEOTIDE SYNTHESIS” (Bachem Holding AG, priority 2022, dated 2024).

Conditions: protonated form of the base; in water at 25 °C; from A. Fischer et al., J. Chem. Soc. 1964, 3591-3596

Nc1ccncc1 [4-aminopyridine]
pKa-value: 9.1
